From PubChem BioAssay (NCI)
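Here, GI50 denotes the concentration required for 50% inhibition of growth. TGI: concentration producing complete growth inhibition.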

Columns and labels:
Assay in all cases: DTP human tumour cell line panel, 384-well format
RXF 393 renal = test system: RXF 393 renal
SK-MEL-2 melanoma = test system: SK-MEL-2 melanoma
SNB-75 CNS = test system: SNB-75 CNS
OVCAR-5 ovarian = test system: OVCAR-5 ovarian
SW-620 colon = test system: SW-620 colon
SNB-19 CNS = test system: SNB-19 CNS
LOX IMVI melanoma = test system: LOX IMVI melanoma
U251 glioblastoma = test system: U251 glioblastoma
UACC-62 melanoma = test system: UACC-62 melanoma
SK-OV-3 ovarian = test system: SK-OV-3 ovarian
OVCAR-4 ovarian = test system: OVCAR-4 ovarian
NCI/ADR-RES ovarian = test system: NCI/ADR-RES ovarian
HL-60(TB) leukemia = test system: HL-60(TB) leukemia
MDA-MB-231 breast = test system: MDA-MB-231 breast
UACC-257 melanoma = test system: UACC-257 melanoma
OVCAR-3 ovarian = test system: OVCAR-3 ovarian
T-47D breast = test system: T-47D breast
NCI-H23 lung = test system: NCI-H23 lung
MDA-MB-435 melanoma = test system: MDA-MB-435 melanoma
HOP-62 NSCLC = test system: HOP-62 NSCLC
SR leukemia = test system: SR leukemia
SF-268 CNS = test system: SF-268 CNS
SK-MEL-28 melanoma = test system: SK-MEL-28 melanoma
M14 melanoma = test system: M14 melanoma
SK-MEL-5 melanoma = test system: SK-MEL-5 melanoma
CAKI-1 renal = test system: CAKI-1 renal
RPMI-8226 leukemia = test system: RPMI-8226 leukemia
IGROV1 ovarian = test system: IGROV1 ovarian
HT29 colon = test system: HT29 colon
KM12 colon = test system: KM12 colon
HOP-92 NSCLC = test system: HOP-92 NSCLC
MOLT-4 leukemia = test system: MOLT-4 leukemia
SN12C renal = test system: SN12C renal
HCC-2998 colon = test system: HCC-2998 colon
MCF7 breast = test system: MCF7 breast
COLO 205 colon = test system: COLO 205 colon
HS 578T breast = test system: HS 578T breast
A549 NSCLC = test system: A549 NSCLC
DU-145 prostate = test system: DU-145 prostate
HCT-15 colon = test system: HCT-15 colon
NCI-H322M lung = test system: NCI-H322M lung
MALME-3M melanoma = test system: MALME-3M melanoma
BT-549 breast = test system: BT-549 breast
TK-10 renal = test system: TK-10 renal
PC-3 prostate = test system: PC-3 prostate
OVCAR-8 ovarian = test system: OVCAR-8 ovarian
ACHN renal = test system: ACHN renal

C[C@]12CCCN1CC1=NNC(=O)c3cc(F)cc4[nH]c2c1c34
GI50 (RXF 393 renal): 12.8 µM
TGI (RXF 393 renal): 30.9 µM
GI50 (SK-MEL-2 melanoma): 20.4 µM
TGI (SK-MEL-2 melanoma): 41.6 µM
GI50 (SNB-75 CNS): 23.3 µM
TGI (SNB-75 CNS): > 67.2 µM
GI50 (OVCAR-5 ovarian): 17.9 µM
TGI (OVCAR-5 ovarian): 44.5 µM
GI50 (SW-620 colon): 7.57 µM
TGI (SW-620 colon): > 39.2 µM
GI50 (SNB-19 CNS): 35.2 µM
TGI (SNB-19 CNS): 97.7 µM
GI50 (LOX IMVI melanoma): 16.3 µM
TGI (LOX IMVI melanoma): 60.4 µM
GI50 (U251 glioblastoma): 13.6 µM
TGI (U251 glioblastoma): > 79.2 µM
GI50 (UACC-62 melanoma): 11.7 µM
TGI (UACC-62 melanoma): 28.1 µM
GI50 (SK-OV-3 ovarian): 35.5 µM
TGI (SK-OV-3 ovarian): > 100 µM
GI50 (OVCAR-4 ovarian): 26.5 µM
TGI (OVCAR-4 ovarian): 79.4 µM
GI50 (NCI/ADR-RES ovarian): 20.9 µM
TGI (NCI/ADR-RES ovarian): 75 µM
GI50 (HL-60(TB) leukemia): 15.6 µM
TGI (HL-60(TB) leukemia): 29.1 µM
GI50 (MDA-MB-231 breast): 13.6 µM
TGI (MDA-MB-231 breast): 60.1 µM
GI50 (UACC-257 melanoma): 37.2 µM
TGI (UACC-257 melanoma): > 92.2 µM
GI50 (OVCAR-3 ovarian): 14 µM
TGI (OVCAR-3 ovarian): 39.9 µM
GI50 (T-47D breast): 31.7 µM
TGI (T-47D breast): > 86.3 µM
GI50 (NCI-H23 lung): 15.4 µM
TGI (NCI-H23 lung): 35.5 µM
GI50 (MDA-MB-435 melanoma): 42.4 µM
TGI (MDA-MB-435 melanoma): > 100 µM
GI50 (HOP-62 NSCLC): 10.9 µM
TGI (HOP-62 NSCLC): 45.6 µM
GI50 (SR leukemia): 1.27 µM
TGI (SR leukemia): 2.58 µM
GI50 (SF-268 CNS): 14.5 µM
TGI (SF-268 CNS): 31.6 µM
GI50 (SK-MEL-28 melanoma): 26.1 µM
TGI (SK-MEL-28 melanoma): 81.3 µM
GI50 (M14 melanoma): 18.3 µM
TGI (M14 melanoma): 43.4 µM
GI50 (SK-MEL-5 melanoma): 19.6 µM
TGI (SK-MEL-5 melanoma): 36.7 µM
GI50 (CAKI-1 renal): 18.1 µM
TGI (CAKI-1 renal): 69.4 µM
GI50 (RPMI-8226 leukemia): 10.5 µM
TGI (RPMI-8226 leukemia): 22.9 µM
GI50 (IGROV1 ovarian): 21.7 µM
TGI (IGROV1 ovarian): > 89.6 µM
GI50 (HT29 colon): 22.8 µM
TGI (HT29 colon): 74.7 µM
GI50 (KM12 colon): 13.2 µM
TGI (KM12 colon): 42.3 µM
GI50 (HOP-92 NSCLC): 18.4 µM
TGI (HOP-92 NSCLC): > 60.9 µM
GI50 (MOLT-4 leukemia): 2.48 µM
TGI (MOLT-4 leukemia): 10.5 µM
GI50 (SN12C renal): 13.1 µM
TGI (SN12C renal): 35 µM
GI50 (HCC-2998 colon): 9.2 µM
TGI (HCC-2998 colon): 27.5 µM
GI50 (MCF7 breast): 19.4 µM
TGI (MCF7 breast): 71.1 µM
GI50 (COLO 205 colon): 17.8 µM
TGI (COLO 205 colon): 45.1 µM
GI50 (HS 578T breast): 13.6 µM
TGI (HS 578T breast): 30.1 µM
GI50 (A549 NSCLC): 29.1 µM
TGI (A549 NSCLC): > 100 µM
GI50 (DU-145 prostate): 27.9 µM
TGI (DU-145 prostate): 80 µM
GI50 (HCT-15 colon): 32 µM
TGI (HCT-15 colon): > 95.3 µM
GI50 (NCI-H322M lung): 23.4 µM
TGI (NCI-H322M lung): 52.5 µM
GI50 (MALME-3M melanoma): 34.4 µM
TGI (MALME-3M melanoma): 83.6 µM
GI50 (BT-549 breast): 16.4 µM
TGI (BT-549 breast): 42.2 µM
GI50 (TK-10 renal): 24.1 µM
TGI (TK-10 renal): 73.9 µM
GI50 (PC-3 prostate): 20 µM
TGI (PC-3 prostate): > 80.7 µM
GI50 (OVCAR-8 ovarian): 13 µM
TGI (OVCAR-8 ovarian): 35.7 µM
GI50 (ACHN renal): 24 µM
TGI (ACHN renal): > 76.2 µM
